In brackets after ≈: the same amount, converted by molar mass.
Assay: Water solubility
Format: physicochemical

| Compound | water solubility |
| --- | --- |
| CC[C@@]1(O)C(=O)OCc2c1cc1n(c2=O)Cc2cc3cc(O)ccc3nc2-1 [Example 10HCPT, 10-hydroxycamptothecin] | ~6 µM (≈ 2.19 µg/mL) |
| [O-]c1c(-c2ccccc2)cc(-[n+]2c(-c3ccccc3)cc(-c3ccccc3)cc2-c2ccccc2)cc1-c1ccccc1 [Reichardt's dye] | 10^−6 M |

Reference: US20040086479A1, “Novel dendritic polymers, crosslinked gels, and their biomedical uses” (DUKE UNIVERSITY, priority 2001, published 2004)
